This is an account of results in patent publication US9422299B2, “Substituted [1,2,4]triazolo[4,3-a]pyrazines as selective NK-3 receptor antagonists” (EUROSCREEN SA, priority 2013, dated 2016).

SMILES strings stand for the structures.

One data set concerns circulating LH levels. Put plainly: Castrated male rat model: circulating luteinizing hormone (LH). Particulars: castrated male SD rats, single oral dose less than or equal to 30 mg/kg, p<0.05. The class given is in vivo. As to the method:
In Vivo Assay to Assess Compound Activity in Rat (Oral Dosing)
Castrated male rat model to assess the effect of compound of invention on circulating levels of luteinizing hormone (LH)
The effect of compounds of the invention to inhibit luteinizing hormone (LH) secretion is determined by the following biological studies.
In humans and rodents, castration is well-precedented to permit heightened, persistent GnRH signaling and consequent elevation of circulating LH. Thus, a castrated rat model is used to provide a broad index for measurement of LH inhibition as a marker of test compound inhibition of the GnRH signaling pathway.
Castrated adult male Sprague-Dawley (SD) rats (150-175 g,) were purchased from Janvier (St Berthevin, France). All animals were housed 2 per cage in a temperature-controlled room (22±2° C.) and 50±5% relative humidity with a 12 hour/12 hour light/dark cycles (lights off at 6h00 pm). The animals were allowed 3 weeks of postoperative recovery prior to study. Animals were handled on a daily basis. Standard diet and tap water were provided ad libitum. Animal cage litters were changed once a week. On the study day, animals were acclimated to the procedure room for a period of one hour prior to the initiation of the experiment.
Compounds of the invention were formulated in 0.5% methyl cellulose.
After basal sampling (TO) a single dose of compounds of the invention or vehicle was administrated orally to rats. Blood samples were then collected at several time points post dosing (45, 90, 150, 300 and 420 minutes). Blood samples were obtained via tail vein bleed, drawn into EDTA-containing tubes and centrifuged immediately. Plasma samples were collected and stored in a −80° C. freezer until assayed. Serum LH levels were determined using radioimmunoassay kit from RIAZEN—Rat LH, Zentech (Liege, Belgium). Baseline was defined as the initial basal blood sample.

The next data set concerns plasma testosterone. Put plainly: Plasma testosterone in gonad intact male rats. The class given is in vivo, rat. Particulars: gonad intact male SD rats, 3 mg/kg oral, vs vehicle, FIG. 1. As to the method:
Effect of compounds of the invention on plasma testosterone in gonad intact male rats
The study was designed to evaluate the effect of compounds of the invention on testosterone circulating levels following oral administration at 3 mg/kg on SD gonad intact male rats.
(§1) Briefly the experimental methods used for this study were as follows:
Two groups of non-fasted rats (male, Sprague-Dawley, 200 to 225 g; n=4 rats/group) with jugular vein cannulation, were dosed via a single oral administration of compounds of the invention at 3 mg/kg. The control group was dosed with the vehicle. Compounds of the invention were prepared in a dose formulation of pyrogen-free water with 0.5% methylcellulose. Blood samples were collected via the catheter implanted in the jugular vein at pre-determined intervals using EDTA-3K as anti-coagulant. Samples were chilled and rapidly processed by centrifugation to obtain corresponding plasma samples. Testosterone hormone levels were determined by RIA performed on plasma samples collected for all the groups at 5 minutes before administration (basal time), and at 45, 90, 150, 300, 480 minutes and 24 hours after dosing.

The next data set has as its system plasma estradiol. Put plainly: Estradiol circulating level in female rats. The format is in vivo, rat. As to conditions: adult female rats, 10 mg/kg b.i.d. oral, 10 days, FIG. 3. As to the method: Effect of Compounds of the Invention on Estradiol Circulating Level in Female Rats
The aim of this study was to evaluate the effect of compounds of the invention on plasma estradiol levels following oral administration at 10 mg/kg (b.i.d.) for a period of 10 days in female rats.
as §1
Two groups of adult, female rats (Sprague-Dawley, ˜320 g) were treated in-phase with their individual estrous cycles. Thus, treatment was started in the proestrus phase (coincident with peak estradiol levels, as shown on Day 1 in FIG. 3) and rats were dosed twice daily (˜9h30 and 17h30) by oral administration either with a compound of the invention at 10 mg/kg or with the vehicle for the control group. Compounds of the invention were prepared in a dose formulation of pyrogen-free water with 0.5% methylcellulose. Estradiol levels were determined for all groups by ELISA performed on plasma samples derived from blood collections taken at 30 minutes before the daily, 9h30 test article administration on all days presented in FIG. 3.

Another data set deals with body temperature. Put plainly: Thermoregulation in OVX ewes. The class given is in vivo, ewe. Particulars: ovariectomized ewes, 1 mg/kg intravenous bolus, fed at 12h00. From the text:
In Vivo Assay in OVX Ewes-Activity in Thermoregulation Experimental Methods: Evaluation of Thermoregulation in OVX Ewe […] After 4 months recovery, animals were acclimatised to housing in single pens for a period of 7 days with ad libitum access to water and […] lucerne hay. One day prior to experimentation, the animals received a jugular vein cannula ([…], Tuta Laboratories, Lane Cove, Australia). The cannula were kept patent with heparinised saline. On the day of the experiment, compound no 5 of the present invention was formulated in physiological saline with 9% 2-hydroxypropyl-β-cyclodextrin at a concentration of 2 mg/mL. Compound no 5 (1 mg/kg, N=5) or vehicle (N=5) was administered at 11h00 by intravenous bolus injection at a dose volume of 0.5 mL/kg through the jugular cannula and the injected material was flushed into the animal with 5 mL of heparinised saline. Animals were fed at 12h00. Rectal temperatures were monitored with a probe at hourly intervals throughout the experiment, starting at 7h40 and concluding at 15h40.

In data set [1] the target is T1, human NK-3 receptor (Homo sapiens (Human), UniProt P29371). Put plainly: Aequorin functional assay with human NK-3 receptor (antagonist testing). The class given is cell-based. Particulars: read-out: Functional assay: Aequorin assay with human NK-3 receptor hNK-3 - AEQ (antagonist IC50). As for the experimental part:
Aequorin Assay with Human NK-3 Receptor
Changes in intracellular calcium levels are a recognized indicator of G protein-coupled receptor activity. The efficacy of compounds of the invention to inhibit NKA-mediated NK-3 receptor activation was assessed by an in vitro Aequorin functional assay. Chinese Hamster Ovary recombinant cells expressing the human NK-3 receptor and a construct that encodes the photoprotein apoaequorin were used for this assay. In the presence of the cofactor coelenterazine, apoaequorin emits a measurable luminescence that is proportional to the amount of intracellular (cytoplasmic) free calcium.
The antagonist activity of compounds of the invention is measured following pre-incubation (3 minutes) of the compound (at various concentrations) with the cells, followed by addition of the reference agonist (NKA) at a final concentration equivalent to the EC80 (3 nM) and recording of emitted light (FDSS 6000 Hamamatsu) over the subsequent 90-second period. The intensity of the emitted light is integrated using the reader software. Compound antagonist activity is measured based on the concentration-dependent inhibition of the luminescence response to the addition of Neurokinin A.

Data set [2] addresses T1, human NK-3 receptor. Put plainly: 3H-SB222200 binding competition assay with human NK-3 receptor. As to conditions: read-out: hNK-3 (Ki). As for the experimental part:
The affinity of compounds of the invention for the human NK-3 receptor was determined by measuring the ability of compounds of the invention to competitively and reversibly displace a well-characterized NK-3 radioligand in a concentration-dependent manner.
^3H-SB222200 Binding Competition Assay with Human NK-3 Receptor
Membranes were prepared from Chinese hamster ovary recombinant cells stably expressing the human NK-3 receptor. The membranes were incubated with 5 nM ^3H-SB222200 (ARC) in a HEPES 25 mM/NaCl 0.1M/CaCl2 1 mM/MgCl2 5 mM/BSA 0.5%/Saponin 10 μg/ml buffer at pH 7.4 and various concentrations of compounds of the invention. The amount of ^3H-SB222200 bound to the receptor was determined after filtration by the quantification of membrane associated radioactivity using the TopCount-NXT reader (Packard).

Another data set has as its target human NK-1 receptor (Homo sapiens (Human), UniProt P25103). Put plainly: Selectivity assay: [3H] substance P binding, human NK-1. As to conditions: 2 nM [3H] substance P, CHO membranes; read-out: hNK-1 (Ki). As for the experimental part:
Selectivity of the compounds of the invention was determined over the other human NK receptors, namely NK-1 and NK-2 receptors.
The affinity of compounds of the invention for the NK-1 receptor was evaluated in CHO recombinant cells which express the human NK-1 receptor. Membrane suspensions were prepared from these cells. The following radioligand: [^3H] substance P (PerkinElmer Cat#NET111520) was used in this assay. Binding assays were performed in a 50 mM Tris/5 mM MnCl2/150 mM NaCl/0.1% BSA at pH 7.4. Binding assays consisted of 25 μl of membrane suspension (approximately 5 μg of protein/well in a 96 well plate), 50 μl of compound or reference ligand (Substance P) at increasing concentrations (diluted in assay buffer) and 2 nM [^3H] substance P. The plate was incubated 60 min at 25° C. in a water bath and then filtered over GF/C filters (Perkin Elmer, 6005174, presoaked in 0.5% PEI for 2 h at room temperature) with a Filtration unit (Perkin Elmer). The radioactivity retained on the filters was measured by using the TopCount-NXT reader (Packard).

The next data set deals with human NK-2 receptor (Homo sapiens (Human), UniProt P21452). Put plainly: Selectivity assay: [125I]-Neurokinin A binding, human NK-2. As to conditions: 0.1 nM [125I]-Neurokinin A, CHO membranes; read-out: hNK-2 (Ki). As to the method: The affinity of compounds of the invention for the NK-2 receptor was evaluated in CHO recombinant cells which express the human NK-2 receptor. Membrane suspensions were prepared from these cells. […] Binding assays were performed in a 25 mM HEPES/1 mM CaCl2/5 mM MgCl2/0.5% BSA/10 μg/ml saponin, at pH 7.4. […] The radioactivity retained on the filters was measured by using the TopCount-NXT reader (Packard).
Chain of human NK-2 receptor (P21452 whole entry): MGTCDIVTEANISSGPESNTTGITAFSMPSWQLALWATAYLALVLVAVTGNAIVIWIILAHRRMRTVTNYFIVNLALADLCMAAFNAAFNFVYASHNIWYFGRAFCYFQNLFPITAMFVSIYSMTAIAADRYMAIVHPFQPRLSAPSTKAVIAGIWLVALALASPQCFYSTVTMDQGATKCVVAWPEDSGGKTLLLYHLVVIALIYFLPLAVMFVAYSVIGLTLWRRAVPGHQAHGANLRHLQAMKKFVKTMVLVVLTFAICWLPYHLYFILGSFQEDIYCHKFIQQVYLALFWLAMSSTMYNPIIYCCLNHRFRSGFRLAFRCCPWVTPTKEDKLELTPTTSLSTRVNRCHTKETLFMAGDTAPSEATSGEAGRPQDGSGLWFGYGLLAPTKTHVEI

A further data set addresses hERG channel (Homo sapiens (Human), UniProt Q12809). Put plainly: hERG inhibition assay (manual patch-clamp, HEK 293 cells). The format is cell-based. As to conditions: 5 minutes of exposure, read-out: CardioSafety (hERG IC50). As to the method: The human ether-a-go-go related gene (hERG) encodes the inward rectifying voltage gated potassium channel in the heart (IKr) which is involved in cardiac repolarisation. […] IKr current inhibition accounts for the vast majority of known cases of drug-induced QT-prolongation.
Whole-cell currents (acquisition by manual patch-clamp) elicited during a voltage pulse were recorded in baseline conditions and following application of tested compounds (5 minutes of exposure). The concentrations of tested compounds (0.3 μM; 3 μM; 10 μM; 30 μM) reflect a range believed to exceed the concentrations at expected efficacy doses in preclinical models.
The current density recorded were normalized against the baseline conditions and corrected for solvent effect and time-dependent current run-down using experimental design in test compound free conditions.
On the technique in general: The hERG channel carries a current that helps repolarise heart muscle cells.

The subject of another data set is plasma protein. Put plainly: Determination of plasma protein binding (equilibrium dialysis). The format is in vitro ADME. As to conditions: 4 hours at 37° C. From the text:
Determination of Plasma Protein Binding
The pharmacokinetic and pharmacodynamic properties of chemicals/drugs are largely a function of the reversible binding of chemicals to plasma or serum proteins. […] Consequently, the extent of the plasma protein binding (PPB) of a compound influences its action as well as its distribution and elimination.
The determination of plasma protein binding (PPB) of a compound is enabled by equilibrium dialysis, an accepted and standard method for reliable estimation of the non-bound drug fraction in plasma. RED (Rapid Equilibrium Dialysis) device insert is made of two side-by-side chambers separated by an O-ring-sealed vertical cylinder of dialysis membrane (MWCO˜8,000). […] After 4 hours incubation at 37° C. under shaking, an aliquot is removed from each chamber and analyzed by a LC-MS/MS procedure enables the determination of both free and bound drug.
The “free fraction” may be calculated as 100%-% rPPB (i.e. the complementary percentage of that disclosed in Table 4, corresponding to the drug concentration that is unbound and therefore available to engage biological target and elicit pharmacological activity).

As a reminder, the IC50 is the concentration that gives 50% inhibition. As a reminder, the Ki is the equilibrium dissociation constant of an inhibitor or competing ligand from its target.

T1 sequence (P29371 whole entry): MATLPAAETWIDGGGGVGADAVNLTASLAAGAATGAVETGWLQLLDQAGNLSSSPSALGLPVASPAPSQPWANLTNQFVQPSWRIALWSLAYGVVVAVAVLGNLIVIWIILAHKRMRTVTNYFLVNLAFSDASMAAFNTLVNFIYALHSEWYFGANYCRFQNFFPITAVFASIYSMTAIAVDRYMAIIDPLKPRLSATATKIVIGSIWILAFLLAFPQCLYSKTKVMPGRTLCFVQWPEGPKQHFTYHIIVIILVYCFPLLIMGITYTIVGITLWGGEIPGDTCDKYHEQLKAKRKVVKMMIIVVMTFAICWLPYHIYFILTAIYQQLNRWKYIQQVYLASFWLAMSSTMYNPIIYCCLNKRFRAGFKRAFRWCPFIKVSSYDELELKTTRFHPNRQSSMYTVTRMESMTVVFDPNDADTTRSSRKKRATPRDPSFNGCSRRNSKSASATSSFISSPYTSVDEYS
Chain of human NK-1 receptor (P25103 whole entry): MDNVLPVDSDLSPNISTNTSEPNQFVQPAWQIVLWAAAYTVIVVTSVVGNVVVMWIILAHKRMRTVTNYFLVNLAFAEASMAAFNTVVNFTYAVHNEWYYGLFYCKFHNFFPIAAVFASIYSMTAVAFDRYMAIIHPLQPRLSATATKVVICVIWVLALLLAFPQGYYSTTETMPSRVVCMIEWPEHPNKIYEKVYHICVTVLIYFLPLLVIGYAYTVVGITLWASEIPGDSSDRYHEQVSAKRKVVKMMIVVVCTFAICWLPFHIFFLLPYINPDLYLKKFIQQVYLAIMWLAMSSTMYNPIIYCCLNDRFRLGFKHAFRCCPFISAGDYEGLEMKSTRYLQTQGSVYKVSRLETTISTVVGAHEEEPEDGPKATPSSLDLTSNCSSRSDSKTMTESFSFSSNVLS
Chain of hERG channel (Q12809 whole entry): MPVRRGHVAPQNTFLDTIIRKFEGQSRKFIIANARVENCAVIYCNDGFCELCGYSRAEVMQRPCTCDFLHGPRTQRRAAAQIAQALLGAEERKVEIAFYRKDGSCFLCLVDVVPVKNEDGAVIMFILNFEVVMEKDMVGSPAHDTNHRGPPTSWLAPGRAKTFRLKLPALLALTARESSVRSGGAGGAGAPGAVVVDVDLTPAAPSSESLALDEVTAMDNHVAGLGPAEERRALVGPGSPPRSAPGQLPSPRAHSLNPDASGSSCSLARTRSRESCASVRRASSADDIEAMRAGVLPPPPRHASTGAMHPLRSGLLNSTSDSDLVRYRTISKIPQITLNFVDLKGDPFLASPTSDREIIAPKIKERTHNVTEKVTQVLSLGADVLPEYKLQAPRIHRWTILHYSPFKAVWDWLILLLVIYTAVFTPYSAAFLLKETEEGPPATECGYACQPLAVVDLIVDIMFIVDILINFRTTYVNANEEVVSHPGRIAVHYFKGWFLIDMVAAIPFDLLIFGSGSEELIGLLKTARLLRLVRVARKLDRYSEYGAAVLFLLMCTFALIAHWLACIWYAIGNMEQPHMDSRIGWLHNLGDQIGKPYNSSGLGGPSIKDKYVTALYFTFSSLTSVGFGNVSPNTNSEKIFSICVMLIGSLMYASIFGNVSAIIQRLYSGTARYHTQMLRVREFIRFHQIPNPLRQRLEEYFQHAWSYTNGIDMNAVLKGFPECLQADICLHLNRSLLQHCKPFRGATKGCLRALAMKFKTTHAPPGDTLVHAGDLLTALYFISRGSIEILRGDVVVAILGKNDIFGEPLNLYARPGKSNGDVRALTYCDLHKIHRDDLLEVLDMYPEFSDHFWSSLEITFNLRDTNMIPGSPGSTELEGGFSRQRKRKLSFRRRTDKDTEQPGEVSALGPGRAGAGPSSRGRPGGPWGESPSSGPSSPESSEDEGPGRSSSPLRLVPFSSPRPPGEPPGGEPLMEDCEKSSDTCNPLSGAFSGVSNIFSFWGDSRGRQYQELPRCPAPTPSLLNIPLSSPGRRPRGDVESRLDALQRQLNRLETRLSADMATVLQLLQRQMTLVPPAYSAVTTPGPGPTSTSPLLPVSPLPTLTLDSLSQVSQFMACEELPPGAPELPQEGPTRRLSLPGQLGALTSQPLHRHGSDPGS

Take `Cc1nsc(-c2nnc3n2CCN(C(=O)c2ccc(F)cc2)[C@@H]3C)n1` [Compound 5, (R)-(4-fluorophenyl)(8-methyl-3-(3-methyl-1,2,4-thiadiazol-5-yl)-5,6-dihydro-[1,2,4]triazolo[4,3-a]pyrazin-7(8H)-yl)methanone]: the “circulating LH levels” value in the data set on circulating LH levels is listed as “significantly suppressed circulating LH levels”. Moreover, the plasma testosterone level entry with plasma testosterone is on record as “significantly suppressed plasma testosterone level”. Also, the estradiol levels entry in the data set with plasma estradiol is on record as “significantly decreased estradiol levels”. Moreover, the “pyrogenic response to feeding” value in the data set on body temperature is “not observed”.

Turning to `COc1cccc(C(=O)N2CCn3c(-c4nc(C)ns4)nnc3[C@H]2C)c1` [Compound 27, (R)-(3-methoxyphenyl)(8-methyl-3-(3-methyl-1,2,4-thiadiazol-5-yl)-5,6-dihydro-[1,2,4]triazolo[4,3-a]pyrazin-7(8H)-yl)methanone], the results for the concentration for half-maximal inhibition (IC50) on human NK-3 receptor [1] and on hERG channel were 220 nM and no less than 70000 nM, respectively. The inhibition constant Ki at human NK-3 receptor [2] was 100 nM; at human NK-1 receptor it was greater than 30000 nM; on human NK-2 receptor, greater than 30000 nM. Besides, the “Exposure (% rPPB), bound drug fraction to the plasma protein” value in the data set with plasma protein is 24%.
